The test system of one series is SARS-CoV-2 NP protein. The class given is cell-based.
For the next series, the system named is MRC-5 cells. The series can be described thus: Cell viability assay. The class given is cell-based, Human. The settings on record: for CC50: MRC-5 cells, MTT, 72 h.
Series [1] concerns SARS-CoV-2. The class given is cell-based.
Series [2] has as its system HCoV-OC43. The class given is cell-based. To be noted: Vero-E6/OC43; MOI 0.1, 72 hpi, real-time RT-PCR. (In general: In qPCR the cycle at which signal appears reflects the starting amount.)
In series [3] the test system is SARS-CoV-2. The class given is cell-based. To be noted: Vero-E6/SARS-CoV-2; MOI 0.1, 72 hpi, real-time RT-PCR.
Series [4] relates to HCoV-OC43. The class given is cell-based. To be noted: for IC50: MRC-5/OC43, MOI 0.1, 72 hpi, viral genome copies by real-time RT-PCR; for relative viral genome copy number in cell lysates and supernatants: 20 μM.
The test system of a further series is Vero-E6 cells. The series can be described thus: Cell viability assay. The class given is cell-based, African green monkey. The settings on record: MTT, 72 h.
A further series relates to HCoV-OC43 NP. The class given is cell-based. The settings on record: MRC-5, MOI 1; 20 μM.
Series [5] relates to HCoV-OC43. The class given is cell-based. The settings on record: MRC-5, 72 hpi; 20 μM.

Read-outs that look alike come from different tables or passages of the source. Where only a bound is given, the exact number is not on record here.

The values below come from publication PMC8915624 (Antiviral Research, 2022).

Broadly, the CC50 is the concentration giving 50% cytotoxicity. A higher CC50 goes with lower toxicity to the cells. A word on the IC50: it is the point on the concentration scale where inhibition reaches its midpoint.

For the molecule `NC(=O)[C@H](CCCN=C(N)CCl)NC(=O)c1ccccc1` [Cl-amidine], in the series with SARS-CoV-2 NP protein, the “reduction of SARS-CoV-2 NP protein expression” value is recorded as approximately 50%. Moreover, the CC50 in the series with MRC-5 cells is 949 µM; with Vero-E6 cells, more than 1000 µM. In addition, in the series with SARS-CoV-2 [1], the “reduction in SARS-CoV-2 yield (plaque assay)” value is given as 1 log. Further, the IC50 was 44.1 µM with HCoV-OC43 [2], 95.2 µM in the series on SARS-CoV-2 [3] and 34.8 µM in the series with HCoV-OC43 [4]. In the series with HCoV-OC43 [4] (MRC-5, MOI 0.1, Cl-A 100 μM, BB-Cl 2.5 μM), the “intra- and extra-cellular viral genome copy numbers” value is given as “drastically reduced”.

Consider AFM30a, for which, in the series on MRC-5 cells, the CC50 amounted to 321 µM. Moreover, in the series with HCoV-OC43 NP, the “OC43 NP protein expression levels (Western blot)” value is “slight decrease”. Besides, the “inhibition of HCoV-OC43 replication rate (maximum within the range of concentrations tested)” value with HCoV-OC43 [4] (MRC-5, MOI 0.1, 72 hpi) is listed as not above 40%. Also, the “relative viral genome copy number in cell lysates and supernatants” value in the series on HCoV-OC43 [4] (MRC-5, MOI 0.1) is recorded as “much less pronounced reduction”. The molecule also came in with an IC50 with HCoV-OC43 [4] of more than 20 µM. Moreover, the “reduction of the viral titer (plaque assay)” value with HCoV-OC43 [5] is given as “barely detectable”.

Regarding GSK199, in the series on MRC-5 cells (MRC-5, 20 μM), the cell viability entry is recorded as “viable”. The molecule also gave a CC50 with MRC-5 cells of 133 µM. In addition, the “OC43 NP protein expression levels (Western blot)” value with HCoV-OC43 NP is given as “dramatic downregulation”. The “viral replication (viral genome production)” value with HCoV-OC43 [4] (MRC-5, 20 μM) is “complete blockade of viral replication”. In addition, the “relative viral genome copy number in cell lysates and supernatants” value in the series with HCoV-OC43 [4] (MRC-5, MOI 0.1) is “drastically reduced”. Besides, half-maximal inhibition with HCoV-OC43 [4] (IC50) was put at 0.6 µM. The “reduction of the viral titer (plaque assay)” value in the series with HCoV-OC43 [5] is on record as approximately 2 log.
